Data set [1] can be described thus: Near UV-visible absorption spectra. The following applies: near-UV/Vis, 2.5 mM solution in methanol; relative to the conventional photolabel. The class given is physicochemical.
In data set [2] the target is T1, concanavalin A (Con A) (Canavalia ensiformis, UniProt P02866). Kind of data set: Photolabeling of Con A, Coomassie gel and anti-biotin western blot. The note with it: for photolabeling of Con A upon UV photoactivation (in words): UV light >320 nm, 10 minutes, anti-biotin peroxidase western blot; for labeling of Con A without UV photoactivation (in words): incubated with Con A, not exposed to UV light. The class given is binding. The procedure: To a solution of concanavalin A (Con A) (0.2 mg) in acetate buffer (10 mM, pH=5 with calcium chloride (1 mM), manganese (II) chloride (1 mM) and sodium chloride (200 mM)) (1 ml), the photoaffinity label (20, 21 or 22) solution (10 mM) in methanol (3 μL) was added at 0° C. This solution was bubbled with a gentle stream of nitrogen gas, using a clean needle, for 5 minutes and incubated in the dark at 0° C. for 30 minutes. […] The resultant sample can be stored at −80° C. and used for SDS gel, Western blot analysis or mass spectroscopic analysis.
Upon running the SDS gel, the PVDF membrane and gel was shaken in transfer buffer for 15 minutes. The holder cassette was placed opened in a shallow vessel such that the black panel was lying flat on the bottom of the vessel. Fiber pad presoaked with transfer buffer was then placed on the black panel of the holder cassette and a presoaked filter paper was placed over it. The equilibrated gel was carefully placed over the filter paper to avoid any air bubble getting trapped between the layers. Then the PVDF membrane was laid over the gel with care towards avoiding any air pocket between the layers. A presoaked filter paper was placed over the membrane followed by a filter pad. The resultant sandwich was firmly secured and the cassette was closed. The cassette holder was placed in the tank such that the black panel of the holder was on the black panel electrode. Insert the ice pack on the other side of the tank and place the tank on a magnetic stirrer. The tank was filled to the top row of circles in the cassette with transfer buffer. The magnetic stirrer was turned on and the lid was closed with black wire to black panel, red wire to red panel. The unit was connected to a power supply and ran at constant voltage of 70 V for 60 minutes. The membrane was carefully removed and the membrane was blocked with 5% (w/v) NFDM (non-fat dry milk) in tris saline Tween-20 buffer (TBS-T) for 1 hour at room temperature. The blocked membrane was then incubated overnight on a shaker at 4° C. with anti-biotin-peroxidase antibody in TBS-T buffer containing 1% NFDM. The membrane was washed five times (10 minutes each time on a shaker) with TBS-T buffer. The membrane was incubated for 5 minutes at room temperature with SuperSignal West Pico chemiluminescence substrate as per manufacturer's protocol. The resultant chemiluminescence of the bands was recorded on a photographic film and developed using a film processor.

Data set [3] can be described thus: Thermal stability evaluation in the dark (19F NMR). Format: physicochemical. The note with it: d4-methanol solution, room temperature (21° C.), one month. As for the experimental part:
Photolabel (1, 2, or 3) (1 mg) was dissolved in d4-methanol (500 μL) in a 5 mm NMR tube. The ^19F NMR of this solution was recorded before any exposure to ambient light as the zero day reading. The NMR tube was then placed in the dark at room temperature and the ^19F NMR of this solution was recorded periodically (8, 14, and 31 days). The analysis was repeated in duplicate.

The nature of data set [4]: Ambient light stability evaluation (fluorescent lamps, 19F NMR). Format: physicochemical. The note with it: d4-methanol; for photodecomposition under ambient light (in words): after 7 days of light exposure; for diazirine remaining intact after ambient light exposure: one month, two linear fluorescent lamps (28 W each), room temperature. The procedure: Photolabel (1, 2, or 3) (1 mg) was dissolved in d4-methanol (500 μL) in a 5 mm NMR tube. The ^19F NMR of this solution was recorded before any exposure to ambient light as the zero day reading. The NMR tube was then placed directly under two linear fluorescent lamps (28 W each) at room temperature and the ^19F NMR of this solution was recorded periodically (4, 7, 14, 18, 26 and 31 days). The analysis was repeated in duplicate.

For data set [5], the target named is T1, concanavalin A (Con A). Kind of data set: Photolabeling of Con A in the presence of mannose (competitive binding). The note with it: competing mannose at 100 fold or 1000 fold, western blot. As for the experimental part:
For the competitive binding studies with mannose, to a solution of Con A (0.2 mg) in acetate buffer (10 mM, pH=5 with calcium chloride (1 mM), manganese (II) chloride (1 mM) and sodium chloride (200 mM)) (1 ml) a aqueous solution of mannose (30 μL of 100 mM solution for 100 fold [or] 30 μL of 1 M solution for 1000 fold) was added and mixed. To this the photoaffinity label (20, 21 or 22) solution (10 mM) in methanol (3 μL) was added at 0° C. This solution was bubbled with a gentle stream of nitrogen gas, using a clean needle, for 5 minutes and incubated in the dark at 0° C. for 30 minutes. The sample was then transferred to a disposable cuvette and photoactivated for 10 minutes using a 150 W XBO xenon short-arc UV lamp fitted with a filter that cuts off light with wavelengths less than 320 nm. The resultant sample can be stored at −80° C. and used for SDS gel and Western blot analysis.
Upon running the SDS gel, the PVDF membrane and gel was shaken in transfer buffer for 15 minutes. The holder cassette was placed opened in a shallow vessel such that the black panel was lying flat on the bottom of the vessel. Fiber pad presoaked with transfer buffer was then placed on the black panel of the holder cassette and a presoaked filter paper was placed over it. […] The resultant chemiluminescence of the bands was recorded on a photographic film and developed using a film processor.
(In general: Immunoblotting shows a protein as a band on a membrane.)

Entries after “also recorded” stand apart in the source; their conditions may differ.

In the case of `OCc1ccc(C2(C(F)(F)F)N=N2)cn1` [compound 1, (5-(3-(trifluoromethyl)-3H-diazirin-3-yl)pyridin-2-yl)methanol], in data set [1], the “decrease of absorption coefficient ϵ” value is recorded as “approximately 15%”. Further, on concanavalin A (Con A) [2], the “photolabeling of Con A upon UV photoactivation (in words)” value is listed as “as efficiently as the conventional diazirine photolabel 3”. Besides, the “decomposition / stability in the dark (in words)” value (“decomposition / stability” below) in data set [3] is “stable”. For the same molecule, in data set [4], the “photodecomposition under ambient light (in words)” value (shortened to “photodecomposition”) is reported as “negligibly photodecomposed” and the “diazirine remaining intact after ambient light exposure” value (from here on “diazirine remaining intact”) was found to be 79%.

For the molecule `OCc1ncc(C2(C(F)(F)F)N=N2)cn1` [compound 2, (5-(3-(trifluoromethyl)-3H-diazirin-3-yl)pyrimidin-2-yl) methanol], the “decrease of absorption coefficient ϵ” value in data set [1] was about 30%. Also, the “photolabeling of Con A upon UV photoactivation (in words)” value at concanavalin A (Con A) [2] is on record as “as efficiently as the conventional diazirine photolabel 3”. For the same molecule, the “decomposition / stability” value in data set [3] was “stable”. For the same molecule, in data set [4], the “photodecomposition” value is “virtually unaffected” and the “diazirine remaining intact” value was 90%.

As to `OCc1ccc(C2(C(F)(F)F)N=N2)cc1` [compound 3, (4-(3-(trifluoromethyl)-3H-diazirin-3-yl)phenyl)methanol, reference compound], the “decomposition / stability” value in data set [3] is “stable”. In data set [4], the “photodecomposition” value is on record as “significant photodecomposition” and the “diazirine remaining intact” value is on record as 27%.

In the case of `O=C(CCCCC1SCC2NC(=O)NC21)NCCCCCCN(Cc1ccc(C2(C(F)(F)F)N=N2)cc1)C(=O)CO[C@H]1O[C@H](CO)[C@@H](O)[C@H](O)[C@@H]1O` (stereo partly drawn) [compound 20, 5-(2-oxohexahydro-1H-thieno[3,4-d]imidazol-4-yl)-N-(6-(N-(4-(3-(trifluoromethyl)-3H-diazirin-3-yl)benzyl)-2-(((2S,3S,4S,5S,6R)-3,4,5-trihydroxy-6-(hydroxymethyl)tetrahydro-2H-pyran-2-yl)oxy)acetamido)hexyl)pentanamide], at concanavalin A (Con A) [2], the “photolabeling of Con A upon UV photoactivation (in words)” value was “successfully labeled the protein target upon photoactivation”; the “labeling of Con A without UV photoactivation (in words)” value is “detected only with coomassie stain and not in the western blot analysis”.

As to `O=C(CCCCC1SCC2NC(=O)NC21)NCCCCCCN(Cc1ccc(C2(C(F)(F)F)N=N2)cn1)C(=O)CO[C@H]1O[C@H](CO)[C@@H](O)[C@H](O)[C@@H]1O` (stereo partly drawn) [compound 21, 5-(2-oxohexahydro-1H-thieno[3,4-d]imidazol-4-yl)-N-(6-(N-((5-(3-(trifluoromethyl)-3H-diazirin-3-yl)pyridin-2-yl)methyl)-2-(((2S,3S,4S,5S,6R)-3,4,5-trihydroxy-6-(hydroxymethyl)tetrahydro-2H-pyran-2-yl)oxy)acetamido)hexyl)pentanamide], at concanavalin A (Con A) [2], the “photolabeling of Con A upon UV photoactivation (in words)” value is “successfully labeled the protein target upon photoactivation; also recorded: as effectively as the conventional phenyl derived photolabel 20”; the “labeling of Con A without UV photoactivation (in words)” value is “detected only with coomassie stain and not in the western blot analysis”. For the same molecule, the “photolabeling / crosslinking of Con A in the presence of mannose (in words)” value at concanavalin A (Con A) [5] is reported as “correlates indirectly to the concentration of competing mannose ligand”.

As to `O=C(CCCCC1SCC2NC(=O)NC21)NCCCCCCN(Cc1ncc(C2(C(F)(F)F)N=N2)cn1)C(=O)CO[C@H]1O[C@H](CO)[C@@H](O)[C@H](O)[C@@H]1O` (stereo partly drawn) [compound 22, 5-(2-oxohexahydro-1H-thieno[3,4-d]imidazol-4-yl)-N-(6-(N-((5-(3-(trifluoromethyl)-3H-diazirin-3-yl)pyrimidin-2-yl)methyl)-2-(((2S,3S,4S,5S,6R)-3,4,5-trihydroxy-6-(hydroxymethyl)tetrahydro-2H-pyran-2-yl)oxy)acetamido)hexyl)pentanamide], at concanavalin A (Con A) [2], the “photolabeling of Con A upon UV photoactivation (in words)” value is “successfully labeled the protein target upon photoactivation; also recorded: as effectively as the conventional phenyl derived photolabel 20”; the “labeling of Con A without UV photoactivation (in words)” value was “detected only with coomassie stain and not in the western blot analysis”. Also, the “photolabeling / crosslinking of Con A in the presence of mannose (in words)” value at concanavalin A (Con A) [5] is on record as “correlates indirectly to the concentration of competing mannose ligand”.

The values above are taken from US10067136B1, “Photoactivatable probes and uses thereof” (University of South Florida, priority 2016, dated 2018).
